Test results from patent US12558357B2, “Tetrahydroquinazoline derivatives as selective cytotoxic agents” (Merck Sharp & Dohme LLC, priority 2020, dated 2026).

Tested on: PBMCs infected with VSV-G pseudotyped HIV virus (VSV-G/pNLG1-P2A-ΔEnv)
Experiment: cells
Type: cell-based, human
Details: Homo sapiens, PBMC, read-out: EC50 (HIV-TACK cell kill activity)

SMILES | EC50 [nM]
CC(F)(F)[C@@]1(C#CC2CC2)NC(=O)Nc2cc(Cn3cnccc3=O)c(Cl)cc21 [Example 48, (S)-6-chloro-4-(cyclopropylethynyl)-4-(1,1-difluoroethyl)-7-((6-oxopyrimidin-1(6H)-yl)methyl)-3,4-dihydroquinazolin-2(1H)-one] | 12
O=C1Nc2c(cc(F)c(Cn3cnccc3=O)c2F)[C@@](C#CC2CC2)(C(F)(F)F)N1 [Example 49, (S)-4-(cyclopropylethynyl)-6,8-difluoro-7-((6-oxopyrimidin-1(6H)-yl)methyl)-4-(trifluoromethyl)-3,4-dihydroquinazolin-2(1H)-one] | 96
CC(F)(F)[C@@]1(C#CC2CC2)NC(=O)Nc2cc(Cn3ncccc3=O)c(F)cc21 [Example 50, (S)-4-(cyclopropylethynyl)-4-(1,1-difluoroethyl)-6-fluoro-7-((6-oxopyridazin-1(6H)-yl)methyl)-3,4-dihydroquinazolin-2(1H)-one] | 32
Cc1ccc(=O)n(Cc2cc3c(cc2F)[C@@](C#CC2CC2)(C(C)(F)F)NC(=O)N3)n1 [Example 51, (S)-4-(cyclopropylethynyl)-4-(1,1-difluoroethyl)-6-fluoro-7-((3-methyl-6-oxopyridazin-1(6H)-yl)methyl)-3,4-dihydroquinazolin-2(1H)-one] | 54
CC(F)(F)[C@@]1(C#CC2CC2)NC(=O)Nc2cc(Cn3ccnc(N)c3=O)ccc21 [Example 53, (S)-7-((3-amino-2-oxopyrazin-1(2H)-yl)methyl)-4-(cyclopropylethynyl)-4-(1,1-difluoroethyl)-3,4-dihydroquinazolin-2(1H)-one] | 18
O=C1Nc2cc(Cn3ccc(=O)[nH]c3=O)ccc2[C@@](C#CC2CC2)(C(F)(F)F)N1 [Example 54, (S)-1-((4-(cyclopropylethynyl)-2-oxo-4-(trifluoromethyl)-1,2,3,4-tetrahydroquinazolin-7-yl)methyl)pyrimidine-2,4(1H,3H)-dione] | 284
CC(F)(F)[C@@]1(C#CC2CC2)NC(=O)Nc2cc(Cn3cnccc3=O)ccc21 [Example 55, (S)-4-(cyclopropylethynyl)-4-(1,1-difluoroethyl)-7-((6-oxopyrimidin-1(6H)-yl)methyl)-3,4-dihydroquinazolin-2(1H)-one] | 96
O=C1Nc2cc(Cn3cnccc3=O)c(Cl)cc2[C@@](C#CC2CC2)(C(F)(F)F)N1 [Example 56, (S)-6-chloro-4-(cyclopropylethynyl)-7-((6-oxopyrimidin-1(6H)-yl)methyl)-4-(trifluoromethyl)-3,4-dihydroquinazolin-2(1H)-one] | 35
N#Cc1ncn(Cc2ccc3c(c2)NC(=O)N[C@]3(C#CC2CC2)C(F)(F)F)c(=O)c1N [Example 57, (S)-5-amino-1-((4-(cyclopropylethynyl)-2-oxo-4-(trifluoromethyl)-1,2,3,4-tetrahydroquinazolin-7-yl)methyl)-6-oxo-1,6-dihydropyrimidine-4-carbonitrile] | 127
Nc1nccn(Cc2cc3c(cc2Cl)[C@@](C#CC2CC2)(C(F)(F)F)NC(=O)N3)c1=O [Example 58, (S)-7-((3-amino-2-oxopyrazin-1(2H)-yl)methyl)-6-chloro-4-(cyclopropylethynyl)-4-(trifluoromethyl)-3,4-dihydroquinazolin-2(1H)-one] | 41
Cc1cn(Cc2ccc3c(c2)NC(=O)N[C@]3(C#CC2CC2)C(F)(F)F)c(=O)c(N)n1 [Example 59, (S)-7-((3-amino-5-methyl-2-oxopyrazin-1(2H)-yl)methyl)-4-(cyclopropylethynyl)-4-(trifluoromethyl)-3,4-dihydroquinazolin-2(1H)-one] | 78
Cc1nc(N)c(=O)n(Cc2ccc3c(c2)NC(=O)N[C@]3(C#CC2CC2)C(F)(F)F)c1C [Example 60, (S)-7-((3-amino-5,6-dimethyl-2-oxopyrazin-1(2H)-yl)methyl)-4-(cyclopropylethynyl)-4-(trifluoromethyl)-3,4-dihydroquinazolin-2(1H)-one] | 156
COCc1cc(=O)n(Cc2cc3c(cc2Cl)[C@@](C#CC2CC2)(C(F)(F)F)NC(=O)N3)cn1 [Example 61, (S)-6-chloro-4-(cyclopropylethynyl)-7-((4-(methoxymethyl)-6-oxopyrimidin-1(6H)-yl)methyl)-4-(trifluoromethyl)-3,4-dihydroquinazolin-2(1H)-one] | 38
O=C1Nc2cc(Cn3cnc(C(F)F)cc3=O)c(Cl)cc2[C@@](C#CC2CC2)(C(F)(F)F)N1 [Example 62, (S)-6-chloro-4-(cyclopropylethynyl)-7-((4-(difluoromethyl)-6-oxopyrimidin-1(6H)-yl)methyl)-4-(trifluoromethyl)-3,4-dihydroquinazolin-2(1H)-one] | 41
O=C1Nc2cc(Cn3cnc(CO)cc3=O)ccc2[C@@](C#CC2CC2)(C(F)(F)F)N1 [Example 63, (S)-4-(cyclopropylethynyl)-7-((4-(hydroxymethyl)-6-oxopyrimidin-1(6H)-yl)methyl)-4-(trifluoromethyl)-3,4-dihydroquinazolin-2(1H)-one] | 145
Cc1cc(=O)n(Cc2ccc3c(c2)NC(=O)N[C@]3(C#CC2CC2)C(C)(F)F)cn1 [Example 64, (S)-4-(cyclopropylethynyl)-4-(1,1-difluoroethyl)-7-((4-methyl-6-oxopyrimidin-1(6H)-yl)methyl)-3,4-dihydroquinazolin-2(1H)-one] | 93
O=C1Nc2cc(Cn3cnc(CO)cc3=O)c(F)cc2[C@@](C#CC2CC2)(C(F)(F)F)N1 [Example 65, (S)-4-(cyclopropylethynyl)-6-fluoro-7-((4-(hydroxymethyl)-6-oxopyrimidin-1(6H)-yl)methyl)-4-(trifluoromethyl)-3,4-dihydroquinazolin-2(1H)-one] | 45
O=C1Nc2cc(Cn3cncc(CO)c3=O)c(F)cc2[C@@](C#CC2CC2)(C(F)(F)F)N1 [Example 66, (S)-4-(cyclopropylethynyl)-6-fluoro-7-((5-(hydroxymethyl)-6-oxopyrimidin-1(6H)-yl)methyl)-4-(trifluoromethyl)-3,4-dihydroquinazolin-2(1H)-one] | 188
CC(F)(F)[C@@]1(C#CC2CC2)NC(=O)Nc2cc(Cn3ccnc(N)c3=O)c(F)cc21 [Example 67, (S)-7-((3-amino-2-oxopyrazin-1(2H)-yl)methyl)-4-(cyclopropylethynyl)-4-(1,1-difluoroethyl)-6-fluoro-3,4-dihydroquinazolin-2(1H)-one] | 12
Nc1nc(Cl)cn(Cc2ccc3c(c2)NC(=O)N[C@]3(C#CC2CC2)C(F)(F)F)c1=O [Example 68, (S)-7-((3-amino-5-chloro-2-oxopyrazin-1(2H)-yl)methyl)-4-(cyclopropylethynyl)-4-(trifluoromethyl)-3,4-dihydroquinazolin-2(1H)-one] | 71
N#Cc1ncn(Cc2cc3c(cc2F)[C@@](C#CC2CC2)(C(F)(F)F)NC(=O)N3)c(=O)c1N [Example 69, (S)-5-amino-1-((4-(cyclopropylethynyl)-6-fluoro-2-oxo-4-(trifluoromethyl)-1,2,3,4-tetrahydroquinazolin-7-yl)methyl)-6-oxo-1,6-dihydropyrimidine-4-carbonitrile] | 29
O=c1ccncn1Cc1ccc2c(c1)NC(=S)N[C@]2(C#CC1CC1)C(F)(F)F [Example 70, (S)-3-((4-(cyclopropylethynyl)-2-thioxo-4-(trifluoromethyl)-1,2,3,4-tetrahydroquinazolin-7-yl)methyl)pyrimidin-4(3H)-one] | 93
Nc1nccn(Cc2ccc3c(c2)NC(=S)N[C@]3(C#CC2CC2)C(F)(F)F)c1=O [Example 71, (S)-3-amino-1-((4-(cyclopropylethynyl)-2-thioxo-4-(trifluoromethyl)-1,2,3,4-tetrahydroquinazolin-7-yl)methyl)pyrazin-2(1H)-one] | 41
Nc1c(C(F)(F)F)ccn(Cc2ccc3c(c2)NC(=O)N[C@]3(C#CC2CC2)C(F)(F)F)c1=O [Example 72, (S)-7-((3-amino-2-oxo-4-(trifluoromethyl)pyridin-1(2H)-yl)methyl)-4-(cyclopropylethynyl)-4-(trifluoromethyl)-3,4-dihydroquinazolin-2(1H)-one] | 193
CN1C(=O)Nc2cc(Cn3cnccc3=O)ccc2[C@@]1(C#CC1CC1)C(F)(F)F [Example 73, (S)-4-(cyclopropylethynyl)-3-methyl-7-((6-oxopyrimidin-1(6H)-yl)methyl)-4-(trifluoromethyl)-3,4-dihydroquinazolin-2(1H)-one] | 275
CCN1C(=O)Nc2cc(Cn3cnccc3=O)ccc2[C@@]1(C#CC1CC1)C(F)(F)F [Example 74, (S)-4-(cyclopropylethynyl)-3-ethyl-7-((6-oxopyrimidin-1(6H)-yl)methyl)-4-(trifluoromethyl)-3,4-dihydroquinazolin-2(1H)-one] | 263
Cc1cc2c(cc1Cn1cnccc1=O)NC(=O)N[C@]2(C#CC1CC1)C(F)(F)F [Example 80, (S)-4-(cyclopropylethynyl)-6-methyl-7-((6-oxopyrimidin-1(6H)-yl)methyl)-4-(trifluoromethyl)-3,4-dihydroquinazolin-2(1H)-one] | 57
CC(F)(F)c1ncn(Cc2ccc3c(c2)NC(=O)N[C@]3(C#CC2CC2)C(F)(F)F)c(=O)c1N [Example 81, (S)-7-((5-amino-4-(1,1-difluoroethyl)-6-oxopyrimidin-1(6H)-yl)methyl)-4-(cyclopropylethynyl)-4-(trifluoromethyl)-3,4-dihydroquinazolin-2(1H)-one] | 166
COc1ccc(=O)n(Cc2cc3c(cc2F)[C@@](C#CC2CC2)(C(C)(F)F)NC(=O)N3)n1 [Example 82, (S)-4-(cyclopropylethynyl)-4-(1,1-difluoroethyl)-6-fluoro-7-((3-methoxy-6-oxopyridazin-1(6H)-yl)methyl)-3,4-dihydroquinazolin-2(1H)-one] | 66
COc1cnn(Cc2cc3c(cc2F)[C@@](C#CC2CC2)(C(C)(F)F)NC(=O)N3)c(=O)c1 [Example 83, (S)-4-(cyclopropylethynyl)-4-(1,1-difluoroethyl)-6-fluoro-7-((4-methoxy-6-oxopyridazin-1(6H)-yl)methyl)-3,4-dihydroquinazolin-2(1H)-one] | 51
